# Measured values from US12558428B2, “Heterobifunctional compounds and their use in treating disease” (Halda Therapeutics OpCo, Inc., priority 2024, dated 2026).
# Test system: T-Rex 293 cells having increased expression of estrogen receptor alpha protein
# Assay: Cellular growth inhibition assay, T-Rex 293 cells, (+) doxycycline
# Format: cell-based
# Conditions: T-REx-293, 72 h, Table 7-A; T-Rex 293 cells with doxycycline (increased ERα expression); 72 hours; CellTiter-Glo; read-out: (+) Dox GI50
# Procedure, shortened: (§1)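 Growth of a doxycycline-inducible ERα T-Rex 293 clone, induced or not with 3 ng/mL doxycycline, was followed for 72 h with test compound in hormone-depleted medium. CellTiter-Glo luminescence gave GI50.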
row,SMILES,GI50
1,Cc1sc2c(c1C)C(c1ccc(N3CCC(O)(CN4CCC(c5ccc(C6=C(c7ccc(Cl)cc7Cl)CCCc7cc(C(=O)O)ccc76)cc5)CC4)CC3)cc1)=N[C@@H](C)c1nnc(C)n1-2 [IV-5],< 50 nM
2,Cc1sc2c(c1C)C(c1ccc(N3CCC(CN4CCC(c5ccc(C6=C(c7ccc(Cl)cc7Cl)CCCc7cc(C(=O)O)ccc76)cc5)CC4)CC3)cc1)=N[C@@H](C)c1nnc(C)n1-2 [IV-6],50 to 500 nM
3,Cc1sc2c(c1C)C(c1ccc(N3CCC(C(=O)N4CCN(c5ccc(C6=C(c7ccc(Cl)cc7Cl)CCCc7cc(C(=O)O)ccc76)cc5)CC4)CC3)cc1)=N[C@@H](C)c1nnc(C)n1-2 [IV-7],50 to 500 nM
4,Cc1sc2c(c1C)C(c1ccc(N3CC(CN4CCN(CC5CN(c6ccc(C7=C(c8ccc(Cl)cc8Cl)CCCc8cc(C(=O)O)ccc87)cc6)C5)CC4)C3)cc1)=N[C@@H](C)c1nnc(C)n1-2 [IV-8],< 50 nM
5,Cc1sc2c(c1C)C(c1ccc(N3CCC(O)(CN4CCN(c5ccc(C6=C(c7ccc(Cl)cc7Cl)CCCc7cc(C(=O)O)ccc76)cc5)CC4)CC3)cc1)=N[C@@H](C)c1nnc(C)n1-2 [IV-9],< 50 nM
6,Cc1sc2c(c1C)C(c1ccc(N3CC(CN4CCN(c5ccc(C6=C(c7ccc(Cl)cc7Cl)CCCc7cc(C(=O)O)ccc76)cc5)CC4)C3)cc1)=N[C@@H](C)c1nnc(C)n1-2 [IV-10],50 to 500 nM
7,Cc1sc2c(c1C)C(c1ccc(N3CCC(CN4CCN(c5ccc(C6=C(c7ccc(Cl)cc7Cl)CCCc7cc(C(=O)O)ccc76)cc5)CC4)CC3)cc1)=N[C@@H](C)c1nnc(C)n1-2 [IV-11],< 50 nM
8,Cc1sc2c(c1C)C(c1ccc(CC(=O)N3CCC4(CCN(c5ccc(C6=C(c7ccc(Cl)cc7Cl)CCCc7cc(C(=O)O)ccc76)cc5)CC4)C3)cc1)=N[C@@H](C)c1nnc(C)n1-2 [IV-12],50 to 500 nM
9,Cc1sc2c(c1C)C(c1ccc(N3CC(CN4CCN(c5ccc(C6=C(c7ccc(Cl)cc7Cl)CCCc7cc(C(=O)O)ccc76)cc5)CC4)C3)cc1)=N[C@@H](Cc1ncco1)c1nnc(C)n1-2 [IV-13],< 50 nM
10,Cc1sc2c(c1C)C(c1ccc(N3CCC(CN4CCN(c5ccc(C6=C(c7ccc(Cl)cc7Cl)CCCc7cc(C(=O)O)ccc76)cc5)CC4)CC3)cc1)=N[C@@H](Cc1ncco1)c1nnc(C)n1-2 [IV-14],< 50 nM
11,Cc1sc2c(c1C)C(c1ccc(N3CCC(O)(CN4CCN(c5ccc(C6=C(c7ccc(Cl)cc7Cl)CCCc7cc(C(=O)O)ccc76)cc5)CC4)CC3)cc1)=N[C@H](C)c1nnc(C)n1-2 [IV-15],> 2500 nM
12,Cc1sc2c(c1C)C(c1ccc(N3CCC(O)(CN4CCN(c5ccc(C6=C(c7ccccc7)CCCc7cc(C(=O)O)ccc76)cc5)CC4)CC3)cc1)=N[C@@H](C)c1nnc(C)n1-2 [IV-16],< 50 nM
13,Cc1sc2c(c1C)C(c1ccc(N3CCC(O)(CN4CCN(c5ccc(C6=C(c7ccccc7)CCCc7cc(O)ccc76)cc5)CC4)CC3)cc1)=N[C@@H](C)c1nnc(C)n1-2 [IV-17],< 50 nM
14,Cc1sc2c(c1C)C(c1ccc(N3CCC(O)(CN4CCN(c5ccc(C6=C(c7ccccc7Cl)CCCc7cc(C(=O)O)ccc76)cc5)CC4)CC3)cc1)=N[C@@H](C)c1nnc(C)n1-2 [IV-18],< 50 nM
15,Cc1sc2c(c1C)C(c1ccc(N3CCC(O)(CN4CCN(c5ccc(C6=C(c7ccc(Cl)cc7Cl)CCCc7cc(O)ccc76)cc5)CC4)CC3)cc1)=N[C@@H](C)c1nnc(C)n1-2 [IV-19],< 50 nM
16,Cc1sc2c(c1C)C(c1ccc(N3CCC(O)(CN4CCN(c5ccc(C6=C(c7ccccc7Cl)CCCc7cc(O)ccc76)cc5)CC4)CC3)cc1)=N[C@@H](C)c1nnc(C)n1-2 [IV-20],< 50 nM
17,Cc1sc2c(c1C)C(c1ccc(N3CCC(F)(CN4CCC(c5ccc(C6=C(c7ccc(Cl)cc7Cl)CCCc7cc(C(=O)O)ccc76)cc5)CC4)CC3)cc1)=N[C@@H](C)c1nnc(C)n1-2 [IV-21],< 50 nM

# Test system: T-Rex 293 cells lacking increased expression of estrogen receptor alpha protein
# Assay: Cellular growth inhibition assay, T-Rex 293 cells, (−) doxycycline
# Format: cell-based
# Conditions: T-REx-293, 72 h, Table 7-A; T-Rex 293 cells without doxycycline (lacking increased ERα expression); 72 hours; CellTiter-Glo; read-out: (−) Dox GI50
# Procedure, shortened: as §1
row,SMILES,GI50
1,Cc1sc2c(c1C)C(c1ccc(N3CCC(O)(CN4CCC(c5ccc(C6=C(c7ccc(Cl)cc7Cl)CCCc7cc(C(=O)O)ccc76)cc5)CC4)CC3)cc1)=N[C@@H](C)c1nnc(C)n1-2 [IV-5],> 2500 nM
2,Cc1sc2c(c1C)C(c1ccc(N3CCC(CN4CCC(c5ccc(C6=C(c7ccc(Cl)cc7Cl)CCCc7cc(C(=O)O)ccc76)cc5)CC4)CC3)cc1)=N[C@@H](C)c1nnc(C)n1-2 [IV-6],500 to 2500 nM
3,Cc1sc2c(c1C)C(c1ccc(N3CCC(C(=O)N4CCN(c5ccc(C6=C(c7ccc(Cl)cc7Cl)CCCc7cc(C(=O)O)ccc76)cc5)CC4)CC3)cc1)=N[C@@H](C)c1nnc(C)n1-2 [IV-7],500 to 2500 nM
4,Cc1sc2c(c1C)C(c1ccc(N3CC(CN4CCN(CC5CN(c6ccc(C7=C(c8ccc(Cl)cc8Cl)CCCc8cc(C(=O)O)ccc87)cc6)C5)CC4)C3)cc1)=N[C@@H](C)c1nnc(C)n1-2 [IV-8],500 to 2500 nM
5,Cc1sc2c(c1C)C(c1ccc(N3CCC(O)(CN4CCN(c5ccc(C6=C(c7ccc(Cl)cc7Cl)CCCc7cc(C(=O)O)ccc76)cc5)CC4)CC3)cc1)=N[C@@H](C)c1nnc(C)n1-2 [IV-9],500 to 2500 nM
6,Cc1sc2c(c1C)C(c1ccc(N3CC(CN4CCN(c5ccc(C6=C(c7ccc(Cl)cc7Cl)CCCc7cc(C(=O)O)ccc76)cc5)CC4)C3)cc1)=N[C@@H](C)c1nnc(C)n1-2 [IV-10],500 to 2500 nM
7,Cc1sc2c(c1C)C(c1ccc(N3CCC(CN4CCN(c5ccc(C6=C(c7ccc(Cl)cc7Cl)CCCc7cc(C(=O)O)ccc76)cc5)CC4)CC3)cc1)=N[C@@H](C)c1nnc(C)n1-2 [IV-11],500 to 2500 nM
8,Cc1sc2c(c1C)C(c1ccc(CC(=O)N3CCC4(CCN(c5ccc(C6=C(c7ccc(Cl)cc7Cl)CCCc7cc(C(=O)O)ccc76)cc5)CC4)C3)cc1)=N[C@@H](C)c1nnc(C)n1-2 [IV-12],500 to 2500 nM
9,Cc1sc2c(c1C)C(c1ccc(N3CC(CN4CCN(c5ccc(C6=C(c7ccc(Cl)cc7Cl)CCCc7cc(C(=O)O)ccc76)cc5)CC4)C3)cc1)=N[C@@H](Cc1ncco1)c1nnc(C)n1-2 [IV-13],50 to 500 nM
10,Cc1sc2c(c1C)C(c1ccc(N3CCC(CN4CCN(c5ccc(C6=C(c7ccc(Cl)cc7Cl)CCCc7cc(C(=O)O)ccc76)cc5)CC4)CC3)cc1)=N[C@@H](Cc1ncco1)c1nnc(C)n1-2 [IV-14],500 to 2500 nM
11,Cc1sc2c(c1C)C(c1ccc(N3CCC(O)(CN4CCN(c5ccc(C6=C(c7ccc(Cl)cc7Cl)CCCc7cc(C(=O)O)ccc76)cc5)CC4)CC3)cc1)=N[C@H](C)c1nnc(C)n1-2 [IV-15],> 2500 nM
12,Cc1sc2c(c1C)C(c1ccc(N3CCC(O)(CN4CCN(c5ccc(C6=C(c7ccccc7)CCCc7cc(C(=O)O)ccc76)cc5)CC4)CC3)cc1)=N[C@@H](C)c1nnc(C)n1-2 [IV-16],500 to 2500 nM
13,Cc1sc2c(c1C)C(c1ccc(N3CCC(O)(CN4CCN(c5ccc(C6=C(c7ccccc7)CCCc7cc(O)ccc76)cc5)CC4)CC3)cc1)=N[C@@H](C)c1nnc(C)n1-2 [IV-17],500 to 2500 nM
14,Cc1sc2c(c1C)C(c1ccc(N3CCC(O)(CN4CCN(c5ccc(C6=C(c7ccccc7Cl)CCCc7cc(C(=O)O)ccc76)cc5)CC4)CC3)cc1)=N[C@@H](C)c1nnc(C)n1-2 [IV-18],500 to 2500 nM
15,Cc1sc2c(c1C)C(c1ccc(N3CCC(O)(CN4CCN(c5ccc(C6=C(c7ccc(Cl)cc7Cl)CCCc7cc(O)ccc76)cc5)CC4)CC3)cc1)=N[C@@H](C)c1nnc(C)n1-2 [IV-19],500 to 2500 nM
16,Cc1sc2c(c1C)C(c1ccc(N3CCC(O)(CN4CCN(c5ccc(C6=C(c7ccccc7Cl)CCCc7cc(O)ccc76)cc5)CC4)CC3)cc1)=N[C@@H](C)c1nnc(C)n1-2 [IV-20],500 to 2500 nM
17,Cc1sc2c(c1C)C(c1ccc(N3CCC(F)(CN4CCC(c5ccc(C6=C(c7ccc(Cl)cc7Cl)CCCc7cc(C(=O)O)ccc76)cc5)CC4)CC3)cc1)=N[C@@H](C)c1nnc(C)n1-2 [IV-21],500 to 2500 nM

# Test system: MCF7 cells (ATCC #HTB-22)
# Assay: Cellular growth inhibition assay, MCF7 cells purchased from ATCC
# Format: cell-based
# Conditions: Homo sapiens, MCF7, 144 h, Table 8-A; MCF7 cells purchased from ATCC; six days; CellTiter-Glo; read-out: GI50
# Procedure, shortened: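 GI50 values come from a four-parameter fit of CellTiter-Glo 2.0 luminescence after six days of compound exposure at 37° C. Seeding density depended on the source: 225 cells/well for ECACC MCF7, 1,500 for ATCC. Medium was RPMI 1640 with 10% FBS and 0.2 U/ml insulin.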
row,SMILES,GI50
1,Cc1sc2c(c1C)C(c1ccc(N3CCC(O)(CN4CCC(c5ccc(C6=C(c7ccc(Cl)cc7Cl)CCCc7cc(C(=O)O)ccc76)cc5)CC4)CC3)cc1)=N[C@@H](C)c1nnc(C)n1-2 [IV-5],50 to 500 nM
2,Cc1sc2c(c1C)C(c1ccc(N3CCC(CN4CCC(c5ccc(C6=C(c7ccc(Cl)cc7Cl)CCCc7cc(C(=O)O)ccc76)cc5)CC4)CC3)cc1)=N[C@@H](C)c1nnc(C)n1-2 [IV-6],50 to 500 nM
3,Cc1sc2c(c1C)C(c1ccc(N3CCC(C(=O)N4CCN(c5ccc(C6=C(c7ccc(Cl)cc7Cl)CCCc7cc(C(=O)O)ccc76)cc5)CC4)CC3)cc1)=N[C@@H](C)c1nnc(C)n1-2 [IV-7],50 to 500 nM
4,Cc1sc2c(c1C)C(c1ccc(N3CC(CN4CCN(CC5CN(c6ccc(C7=C(c8ccc(Cl)cc8Cl)CCCc8cc(C(=O)O)ccc87)cc6)C5)CC4)C3)cc1)=N[C@@H](C)c1nnc(C)n1-2 [IV-8],< 50 nM
5,Cc1sc2c(c1C)C(c1ccc(N3CCC(O)(CN4CCN(c5ccc(C6=C(c7ccc(Cl)cc7Cl)CCCc7cc(C(=O)O)ccc76)cc5)CC4)CC3)cc1)=N[C@@H](C)c1nnc(C)n1-2 [IV-9],< 50 nM
6,Cc1sc2c(c1C)C(c1ccc(N3CC(CN4CCN(c5ccc(C6=C(c7ccc(Cl)cc7Cl)CCCc7cc(C(=O)O)ccc76)cc5)CC4)C3)cc1)=N[C@@H](C)c1nnc(C)n1-2 [IV-10],50 to 500 nM
7,Cc1sc2c(c1C)C(c1ccc(N3CCC(CN4CCN(c5ccc(C6=C(c7ccc(Cl)cc7Cl)CCCc7cc(C(=O)O)ccc76)cc5)CC4)CC3)cc1)=N[C@@H](C)c1nnc(C)n1-2 [IV-11],50 to 500 nM
8,Cc1sc2c(c1C)C(c1ccc(CC(=O)N3CCC4(CCN(c5ccc(C6=C(c7ccc(Cl)cc7Cl)CCCc7cc(C(=O)O)ccc76)cc5)CC4)C3)cc1)=N[C@@H](C)c1nnc(C)n1-2 [IV-12],50 to 500 nM
9,Cc1sc2c(c1C)C(c1ccc(N3CC(CN4CCN(c5ccc(C6=C(c7ccc(Cl)cc7Cl)CCCc7cc(C(=O)O)ccc76)cc5)CC4)C3)cc1)=N[C@@H](Cc1ncco1)c1nnc(C)n1-2 [IV-13],< 50 nM
10,Cc1sc2c(c1C)C(c1ccc(N3CCC(CN4CCN(c5ccc(C6=C(c7ccc(Cl)cc7Cl)CCCc7cc(C(=O)O)ccc76)cc5)CC4)CC3)cc1)=N[C@@H](Cc1ncco1)c1nnc(C)n1-2 [IV-14],< 50 nM
11,Cc1sc2c(c1C)C(c1ccc(N3CCC(O)(CN4CCN(c5ccc(C6=C(c7ccc(Cl)cc7Cl)CCCc7cc(C(=O)O)ccc76)cc5)CC4)CC3)cc1)=N[C@H](C)c1nnc(C)n1-2 [IV-15],500 to 2500 nM
12,Cc1sc2c(c1C)C(c1ccc(N3CCC(O)(CN4CCN(c5ccc(C6=C(c7ccccc7)CCCc7cc(C(=O)O)ccc76)cc5)CC4)CC3)cc1)=N[C@@H](C)c1nnc(C)n1-2 [IV-16],< 50 nM
13,Cc1sc2c(c1C)C(c1ccc(N3CCC(O)(CN4CCN(c5ccc(C6=C(c7ccccc7)CCCc7cc(O)ccc76)cc5)CC4)CC3)cc1)=N[C@@H](C)c1nnc(C)n1-2 [IV-17],< 50 nM
14,Cc1sc2c(c1C)C(c1ccc(N3CCC(O)(CN4CCN(c5ccc(C6=C(c7ccccc7Cl)CCCc7cc(C(=O)O)ccc76)cc5)CC4)CC3)cc1)=N[C@@H](C)c1nnc(C)n1-2 [IV-18],< 50 nM
15,Cc1sc2c(c1C)C(c1ccc(N3CCC(O)(CN4CCN(c5ccc(C6=C(c7ccc(Cl)cc7Cl)CCCc7cc(O)ccc76)cc5)CC4)CC3)cc1)=N[C@@H](C)c1nnc(C)n1-2 [IV-19],50 to 500 nM
16,Cc1sc2c(c1C)C(c1ccc(N3CCC(O)(CN4CCN(c5ccc(C6=C(c7ccccc7Cl)CCCc7cc(O)ccc76)cc5)CC4)CC3)cc1)=N[C@@H](C)c1nnc(C)n1-2 [IV-20],< 50 nM
17,Cc1sc2c(c1C)C(c1ccc(N3CCC(F)(CN4CCC(c5ccc(C6=C(c7ccc(Cl)cc7Cl)CCCc7cc(C(=O)O)ccc76)cc5)CC4)CC3)cc1)=N[C@@H](C)c1nnc(C)n1-2 [IV-21],50 to 500 nM
